Source: paper PMC10002517, “Inhibition of Transglutaminase 2 as a Therapeutic Strategy in Celiac Disease—In Vitro Studies in Intestinal Cells and Duodenal Biopsies” (International Journal of Molecular Sciences, 2023)

Experiments:
[1] = test system: transepithelial passage of P31-43 in Caco-2 cells; experiment: Transepithelial transport of promofluor-conjugated gliadin peptide P31-43 across Caco-2 monolayers (fluorometry); type: cell-based, human; conditions: 1 µM and 100 µM inhibitor; 3 h
Method: Transepithelial transport of immunogenic and toxic gliadin peptides were examined in Caco-2 cells 7–14 days after confluency. Caco-2 cells were seeded on semi-permeable transwell supports (ThinCert, culture surface: 33.6 mm², pore size: 0.4 µm) in 24-well plates (Greiner Bio One, Pleidelsheim, Germany). Prior to the transport experiments, the integrity of the cell monolayer was tested by measuring the transepithelial electric resistance (TEER) using a volt-ohm meter (Millipore, Schwalbach, Germany). Monolayers with insufficient TEER (<350 Ω/cm^2) were omitted. The synthesis and purification of promofluor-conjugated gliadin peptides were described elsewhere. Cells were either incubated with the immunogenic peptide P56-88 ([…]) or the toxic gliadin peptide P31-43 (LGQQQPFPPQQPY), 7 µg/mL each, in Hank’s balanced salt solution (HBSS) for 3 h. To investigate the role of TG2 on the transport of gliadin peptides, incubation was performed in the presence of ERW1041 and PX-12. After 3 h, basal and apical supernatants were collected, and the relative fluorescence of the basal compartment was quantified using a FLUOstar Optima (BMG Labtech) microplate reader. Background subtraction was performed against conditions, where no labeled peptides were used. Normalization was performed against conditions, where no inhibitors were used.

[2] = given intravenously, clinical trials; rapid binding to plasma components; cited from earlier work
Source text: This might be explained by rapid degradation or reduction of PX-12 by living cells. This is in line with observations in clinical trials, where PX-12 plasma levels were very low when given intravenously due to rapid binding to plasma components.

tumor cell lines = conditions: 10 µM; cited from earlier work
Method: To further examine the applicability of both substances, we analyzed their effect on the viability of Caco-2 cells. […] In those studies, however, viability was determined in tumor cell lines and not in differentiated int ...

SMILES	transport of P31-43 [1]	plasma levels [2]	cytotoxicity (tumor cell lines)
O=C(NC[C@@H]1CC(Br)=NO1)[C@@H]1CCCN1C(=O)OCc1cnc2ccccc2c1 [ERW1041]	remained unaffected		
CCC(C)SSc1ncc[nH]1 (stereo not drawn) [PX-12, 2-[(1-methylpropyl)dithio]-1H-imidazole]		very low	cytotoxic effects
